Data on ten compounds can be found in ChEMBL document CHEMBL1129710, “Glycomimetic selectin inhibitors: (-D-mannopyranosyloxy)methylbiphenyls” (Bioorg Med Chem Lett, 1996).

Calls of active or inactive are those of the source. The rule behind the calls is not given here.

In assay [1] the test system is HL-60. The assay is described as follows: Compound was tested for its ability to inhibit sialyl Lewis X (sLex, IC50 = 2 mM) dependent binding of HL-60 cells to P-selectin fusion protein. The assay is classed as functional.
The subject of assay [2] is HL-60. The assay is described as follows: Compound was tested for its ability to inhibit sialyl Lewis X (sLex, IC50 = 2 mM) dependent binding of HL-60 cells to P-selectin fusion protein; Not assayed. The assay is classed as functional, cell-based.
Assay [3] deals with HL-60. The assay is described as follows: Compound was tested for its ability to inhibit sialyl Lewis X dependent binding of HL-60 cells to P-selectin fusion protein. Type of assay: functional, cell-based. As to conditions: Homo sapiens.
A further assay has as its target T1, E-selectin (Mus musculus, UniProt Q00690).
T1 sequence (Q00690 whole entry): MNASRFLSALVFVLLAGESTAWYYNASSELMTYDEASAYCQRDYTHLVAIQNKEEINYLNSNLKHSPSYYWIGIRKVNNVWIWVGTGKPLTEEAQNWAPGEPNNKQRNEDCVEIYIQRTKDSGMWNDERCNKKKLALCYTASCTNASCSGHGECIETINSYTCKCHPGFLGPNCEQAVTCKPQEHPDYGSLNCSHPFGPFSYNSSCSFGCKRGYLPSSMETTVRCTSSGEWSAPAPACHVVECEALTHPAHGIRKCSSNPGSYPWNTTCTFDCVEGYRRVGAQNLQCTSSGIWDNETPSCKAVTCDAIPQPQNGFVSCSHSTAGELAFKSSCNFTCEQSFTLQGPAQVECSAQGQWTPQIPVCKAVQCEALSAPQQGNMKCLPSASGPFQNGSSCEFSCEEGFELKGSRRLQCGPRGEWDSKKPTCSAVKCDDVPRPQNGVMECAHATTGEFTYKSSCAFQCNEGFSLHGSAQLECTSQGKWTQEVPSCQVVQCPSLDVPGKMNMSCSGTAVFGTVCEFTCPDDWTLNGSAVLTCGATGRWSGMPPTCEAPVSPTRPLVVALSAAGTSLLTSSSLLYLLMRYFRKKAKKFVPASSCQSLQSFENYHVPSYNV
The assay is described as follows: Compound was tested for its ability to inhibit sialyl Lewis X dependent binding of HL-60 cells to Selectin E fusion protein.

`O=C(O)Cc1ccc(-c2cccc(CO[C@H]3O[C@H](CO)[C@@H](O)[C@@H](O)[C@@H]3O)c2)cc1`: the Ratio with HL-60 [1] was >20.

For `O=C(O)Cc1cccc(-c2ccccc2CO[C@H]2O[C@H](CO)[C@@H](O)[C@@H](O)[C@@H]2O)c1`, the Ratio entry in the assay with HL-60 [2] was “inactive”. As to `O=C(O)Cc1cccc(-c2cccc(CO[C@H]3O[C@H](CO)[C@@H](O)[C@@H](O)[C@@H]3O)c2)c1`, in the assay on HL-60 [1], the Ratio is reported as 1.2. In the case of `O=C(O)c1cccc(-c2cccc(CO[C@H]3O[C@H](CO)[C@@H](O)[C@@H](O)[C@@H]3O)c2)c1`, the Ratio with HL-60 [1] amounted to 2.5. Regarding `O=C(O)CCC(=O)c1ccc(-c2cccc(CO[C@H]3O[C@H](CO)[C@@H](O)[C@@H](O)[C@@H]3O)c2)cc1`, the Ratio in the assay with HL-60 [1] is listed as >>10. As to `O=C(O)COc1ccc(-c2cccc(CO[C@H]3O[C@H](CO)[C@@H](O)[C@@H](O)[C@@H]3O)c2)cc1`, in the assay on HL-60 [1], the Ratio was found to be 1.2. The same measure, in the same setting: as for `O=C(O)Cc1cccc(-c2ccc(CO[C@H]3O[C@H](CO)[C@@H](O)[C@@H](O)[C@@H]3O)cc2)c1`, the figure is >>2.3.

As for `Cc1cc(-c2cccc(CO[C@H]3O[C@H](CO)[C@@H](O)[C@@H](O)[C@@H]3O)c2)cc(C)c1OCC(=O)O`, the Ratio in the assay on HL-60 [1] is recorded as 0.5. Take `CC(=O)N[C@H]1[C@H]([C@H](O)[C@H](O)CO)O[C@@](O[C@H]2[C@@H](O)[C@@H](CO)O[C@@H](O[C@@H]([C@H](O[C@@H]3O[C@@H](C)[C@@H](O)[C@@H](O)[C@@H]3O)[C@H](C=O)NC(C)=O)[C@H](O)CO)[C@@H]2O)(C(=O)O)C[C@@H]1O` [SIALYL LEWIS X]: the values for the IC50 in the assay on HL-60 [3] and at E-selectin were 2000 µM and 3000 µM, respectively. For the compound `O=C(O)COc1cccc(-c2cccc(CO[C@H]3O[C@H](CO)[C@@H](O)[C@@H](O)[C@@H]3O)c2)c1`, the Ratio in the assay on HL-60 [1] amounted to 4.8.

Broadly, the IC50 is the concentration at which inhibition is half-maximal.
